In patent US6867207B2, “IL-5 inhibiting 6-azauracil derivatives” (Janssen Pharmaceutica N.V., priority 1997, dated 2005):
Marks after values point to notes of the source that are not given here.

tested on: IL-5 production; assay: In vitro inhibition of IL-5 production in human blood (phytohemagglutinin-stimulated whole blood, ELISA); format: cell-based; details: test dose 1×10^−5 M (values marked *), 48 hours
Method: In Vitro Inhibition of IL-5 Production in Human Blood
Human Whole Blood Stimulation
Peripheral blood from healthy male donors was drawn into heparinized syringes (12.5 U heparin/ml). Blood samples were three-fold diluted in RMPI 1640 medium (Life Technologies, Belgium) supplemented with 2 mM L-glutamine, 100 U/ml penicillin and 100 μg/ml streptomycin, and 300 μl fractions were distributed in 24-well multidisc plates. Blood samples were preincubated (60 minutes at 37° C.) in a humidified 6% CO2-atmosphere with 100 μl of drug solvent (final concentration 0.02% dimethylsulfoxide in RPMI 1640) or with 100 μl of an appropriate dose of test compound before being stimulated by the addition of 100 μl of phytohemagglutinin HA17 (Murex, UK) at a final concentration of 2 μg/ml. After 48 hours, cell-free supernatant fluids were collected by centrifugation and stored at −70° C. until tested for the presence of IL-5.
IL-5 measurements were conducted as described in Van Wauwe et al. (1996, Inflamm Res, 45, 357-363) on page 358 using ELISA.
Table 9 lists the percentage inhibition of IL-5 production (column “% inh”) at a test dose of 1×10^−6 M, or in case the percentage inhibition is marked with an “*” 1×10^−5 M, the compounds of the present invention.

SMILES | % inh. (percentage inhibition of IL-5 production), marked with *
O=c1cnn(-c2ccc(C(Sc3nc4ccccc4[nH]3)c3ccc(Cl)cc3)c(Cl)c2)c(=O)[nH]1 (racemic) [Compound 52] | 57* %
Cc1cc(O)nc(SC(c2ccc(Cl)cc2)c2ccc(-n3ncc(=O)[nH]c3=O)cc2Cl)n1 (racemic) [Compound 60] | 24* %

same assay, conditions: test dose 1×10^−5 M (values marked *), 48 hours, read-out: % inh. (percentage inhibition of IL-5 production), marked with *

SMILES | inhibition at 10 µM [%]
O=c1cnn(-c2ccc(C(c3ccc(Cl)cc3)N3CCC(O)CC3)c(Cl)c2)c(=O)[nH]1 (racemic) [Compound 119, (±)-2-[3-chloro-4-[(4-chlorophenyl)(4-hydroxy-1-piperidinyl)methyl]phenyl]-1,2,4-triazine-3,5(2H,4H)-dione] | 72

same assay, conditions: test dose 1×10^−6 M, 48 hours

SMILES | % inh. (percentage inhibition of IL-5 production) [%]
O=c1cnn(-c2cc(Cl)c(C(c3ccc(Cl)cc3)c3nc(-c4ccccc4)c(CNS(=O)(=O)Cc4ccccc4)s3)c(Cl)c2)c(=O)[nH]1 (racemic) [Comp 336] | 88
O=c1cnn(-c2cc(Cl)c(C(c3ccc(Cl)cc3)c3nnc(COc4ccccc4Cl)o3)c(Cl)c2)c(=O)[nH]1 (racemic) [Compound 175] | 58
Cc1ccc2[nH]c(SC(c3ccc(Cl)cc3)c3ccc(-n4ncc(=O)[nH]c4=O)cc3Cl)nc2c1 (racemic) [Compound 62] | 30
O=c1cnn(-c2ccc(C(c3ccc(Cl)cc3)c3scnc3-c3cccc(F)c3)c(Cl)c2)c(=O)[nH]1 (racemic) [Compound 148] | 79
CCc1sc(C(c2ccc(Cl)cc2)c2c(Cl)cc(-n3ncc(=O)[nH]c3=O)cc2Cl)nc1-c1ccccc1F (racemic) [Comp 261] | 93
O=c1cnn(-c2cc(Cl)c(C(Sc3nnc(-c4ccccc4)o3)c3ccc(Cl)c(C(F)(F)F)c3)c(Cl)c2)c(=O)[nH]1 (stereo not shown) [Compound 391] | 97
CN1CCN(c2ccnc(SC(c3ccc(Cl)cc3)c3c(Cl)cc(-n4ncc(=O)[nH]c4=O)cc3Cl)n2)CC1 (racemic) [Compound 345] | 88
O=c1cnn(-c2ccc(C(c3ccc(Cl)cc3)c3sc(-c4ccccc4Cl)nc3-c3ccccc3Cl)c(Cl)c2)c(=O)[nH]1 (racemic) [Compound 151] | 17
Cc1nc(-c2ccc(Cl)cc2)c(C(c2ccc(Cl)cc2)c2ccc(-n3ncc(=O)[nH]c3=O)cc2Cl)s1 (racemic) [Compound 149] | 89
O=c1cnn(-c2ccc(C(Sc3nc4ccccc4o3)c3ccc(Cl)cc3)c(Cl)c2)c(=O)[nH]1 (racemic) [Compound 71] | 84
O=c1cnn(-c2ccc(C(c3ccc(Cl)cc3)c3nc(-c4ccccc4)sc3-c3ccccc3)c(Cl)c2)c(=O)[nH]1 (racemic) [Compound 373] | 40
O=c1cnn(-c2cc(Cl)c(C(Sc3nc4ccccc4s3)c3ccc(Cl)c(C(F)(F)F)c3)c(Cl)c2)c(=O)[nH]1 (stereo not shown) [Compound 385] | 95
O=c1cnn(-c2cc(Cl)c(C(c3ccc(Cl)cc3)c3nnc(-c4cccc(O)c4)o3)c(Cl)c2)c(=O)[nH]1 (racemic) [Compound 200] | 43
CN1CCN(Cc2sc(C(c3ccc(Cl)cc3)c3c(Cl)cc(-n4ncc(=O)[nH]c4=O)cc3Cl)nc2-c2ccccc2)CC1 (racemic) [Comp 302] | 87
O=c1cnn(-c2cc(Cl)c(C(c3ccc(Cl)cc3)c3cccnc3)c(Cl)c2)c(=O)[nH]1 (stereo not shown) [Comp 116] | 74
CN1CCC(c2nnc(C(c3ccc(Cl)cc3)c3c(Cl)cc(-n4ncc(=O)[nH]c4=O)cc3Cl)o2)CC1 (racemic) [Compound 195] | 7
O=c1cnn(-c2cc(Cl)c(C(Sc3cnccn3)c3ccc(Cl)c(C(F)(F)F)c3)c(Cl)c2)c(=O)[nH]1 (racemic) [Compound 401] | 92
O=c1cnn(-c2ccc(C(Sc3ncnc4[nH]ncc34)c3ccc(Cl)cc3)c(Cl)c2)c(=O)[nH]1 (racemic) [Compound 74] | 69
CCOC(=O)CSC(c1ccc(Cl)cc1)c1ccc(-n2ncc(=O)[nH]c2=O)cc1Cl (racemic) [Compound 76] | 2
COC1CCN(Cc2sc(C(c3ccc(Cl)cc3)c3c(Cl)cc(-n4ncc(=O)[nH]c4=O)cc3Cl)nc2-c2ccccc2)CC1.Cl.O (racemic) [Comp 314] | 81
O=c1cnn(-c2ccc(C(O)(c3ccc(Cl)cc3)c3cccnc3)c(Cl)c2)c(=O)[nH]1 (stereo not shown) [Comp 117] | 34

SMILES | % inh. (percentage inhibition of IL-5 production) [%]
O=C(Cc1sc(C(c2ccc(Cl)cc2)c2c(Cl)cc(-n3ncc(=O)[nH]c3=O)cc2Cl)nc1-c1ccccc1)N1CCOCC1 (racemic) [Comp 276] | 91
Cc1sc(C(c2ccc(Cl)cc2)c2c(Cl)cc(-n3ncc(=O)[nH]c3=O)cc2Cl)nc1-c1ccccc1Cl (racemic) [Comp 272] | 87
CN(C)Cc1nnc(C(c2ccc(Cl)cc2)c2c(Cl)cc(-n3ncc(=O)[nH]c3=O)cc2Cl)o1 (racemic) [Compound 198] | 46
O=c1cnn(-c2cc(Cl)c(C(Sc3nc(-c4ccc(F)cc4F)cs3)c3ccc(Cl)c(C(F)(F)F)c3)c(Cl)c2)c(=O)[nH]1 (stereo not shown) [Compound 397] | 83
O=c1cnn(-c2cc(Cl)c(C(c3ccc(Cl)cc3)c3nc(-c4cccc(F)c4F)cs3)c(Cl)c2)c(=O)[nH]1 (racemic) [Comp 337] | 96
CN(C)CCNC(c1ccc(Cl)cc1)(c1nc(-c2ccccc2)c(Cl)s1)c1ccc(-n2ncc(=O)[nH]c2=O)cc1Cl (racemic) [Comp 266] | 46
O=c1cnn(-c2cc(Cl)c(C(c3ccc(Cl)cc3)c3nc(-c4cccc(F)c4)cs3)c(Cl)c2)c(=O)[nH]1 (single isomer, unassigned) [Comp 319] | 84
O=c1cnn(-c2cc(Cl)c(C(Sc3ncccn3)c3ccc(Cl)cc3)c(Cl)c2)c(=O)[nH]1 (racemic) [Compound 340] | 88
O=c1cnn(-c2cc(Cl)c(C(c3ccc(Cl)cc3)c3nc(-c4ccccc4)c(Cc4ccccc4)s3)c(Cl)c2)c(=O)[nH]1 (racemic) [Comp 249] | 80
O=c1cnn(-c2cc(Cl)c(C(Sc3nc(-c4ccccc4)no3)c3ccc(Cl)c(C(F)(F)F)c3)c(Cl)c2)c(=O)[nH]1 (racemic) [Compound 404] | 92
O=c1cnn(-c2ccc(C(c3ccc(Cl)cc3)c3noc(-c4ccccc4)n3)c(Cl)c2)c(=O)[nH]1 (racemic) [Comp 107] | 81
O=c1cnn(-c2cc(Cl)c(C(c3ccc(Cl)cc3)c3nc(-c4ccccc4)c(CN4CCOCC4)s3)c(Cl)c2)c(=O)[nH]1 (racemic) [Comp 292] | 94
CCOC(=O)c1cnc(SC(c2ccc(Cl)cc2)c2ccc(-n3ncc(=O)[nH]c3=O)cc2Cl)nc1O (racemic) [Compound 339] | 35
O=c1cnn(-c2cc(Cl)c(C(c3ccc(Cl)c(C(F)(F)F)c3)c3nnc(-c4ccccc4)o3)c(Cl)c2)c(=O)[nH]1 (racemic) [Compound 165] | 80
O=c1cnn(-c2cc(Cl)c(C(Sc3nc4ccccc4s3)c3ccc(Cl)cc3)c(Cl)c2)c(=O)[nH]1 (stereo not shown) [Compound 384] | 95
CN(C)CCNC(=O)Cc1sc(C(c2ccc(Cl)cc2)c2c(Cl)cc(-n3ncc(=O)[nH]c3=O)cc2Cl)nc1-c1ccccc1 (racemic) [Comp 317] | 67
CCc1sc(C(C)(c2ccc(Cl)c(Cl)c2)c2c(Cl)cc(-n3ncc(=O)[nH]c3=O)cc2Cl)nc1-c1ccccc1 (racemic) [Comp 251] | 90
CC(c1ccc(Cl)c(C(F)(F)F)c1)(c1nnc(-c2ccccc2)o1)c1ccc(-n2ncc(=O)[nH]c2=O)cc1Cl (racemic) [Compound 155] | 80
O=c1cnn(-c2cc(Cl)c(C(Sc3ccccn3)c3ccc(Cl)cc3)c(Cl)c2)c(=O)[nH]1 (stereo not shown) [Compound 377] | 87
COc1cccc(-c2csc(C(c3ccc(Cl)cc3)c3c(Cl)cc(-n4ncc(=O)[nH]c4=O)cc3Cl)n2)c1 (racemic) [Comp 24] | 74

same assay, conditions: test dose 1×10^−6 M, 48 hours, read-out: % inh. (percentage inhibition of IL-5 production)

SMILES | inhibition at 1 µM [%]
O=c1cnn(-c2cc(Cl)c(C(CO)c3ccc(Cl)cc3)c(Cl)c2)c(=O)[nH]1 (racemic) [Compound 420, (±)-2-[3,5-dichloro-4-[1-(4-chlorophenyl)-2-hydroxyethyl]phenyl]-1,2,4-triazine-3,5(2H,4H)-dione] | 33
O=c1cnn(-c2cc(Cl)c(C(Sc3nnc(-c4ccccc4)o3)c3ccc(Cl)cc3)c(Cl)c2)c(=O)[nH]1 (racemic) [Compound 406, (±)-2-[3,5-dichloro-4-[(4-chlorophenyl)[(5-phenyl-1,3,4-oxadiazol-2-yl)thio]methyl]phenyl]-1,2,4-triazine-3,5(2H,4H)-dione] | 84
